Laboratory results published in article PMC6556873, “Rapid Covalent-Probe Discovery by Electrophile-Fragment Screening” (Journal of the American Chemical Society, 2019).
Like-named read-outs stand apart in the source and are kept apart here.

How the values were obtained:
[1] = target: T1, OTUB2 (OTUB2A) (Homo sapiens, UniProt Q96DC9); parameters: Intact protein LC/MS covalent labelling, fragments in pools of five, 200 uM each, 4 °C; conditions: 24 h, 4 °C, pool of five; 200 µM; covalent
T1 construct: full length residues 1-234, E. coli BL21(DE3)-R3, His tag removed by TEV, construct 27312 Da
T1 sequence (Q96DC9 1-234): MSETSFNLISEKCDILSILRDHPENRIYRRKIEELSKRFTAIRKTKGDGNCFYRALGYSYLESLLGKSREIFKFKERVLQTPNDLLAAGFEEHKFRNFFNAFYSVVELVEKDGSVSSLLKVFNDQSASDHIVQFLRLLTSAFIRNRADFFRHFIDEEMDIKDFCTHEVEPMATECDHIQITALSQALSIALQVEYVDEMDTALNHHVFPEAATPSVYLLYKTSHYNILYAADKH
Procedure: (§1) Incubations were performed at 200 μM for each compound and 2 μM of protein (10 μM for BSA) for 24 h at 4 °C with moderate shaking. Incubation buffers varied among proteins (PBS pH 7.4 for QSOX1 and BSA; 10 mM HEPES pH 7.5, 0.3 M NaCl, 0.5 mM TCEP for PCAF, UPS8, and NUDT7; […]; 10 mM Na2HPO4 pH 7.5 100 mM NaCl 5 mM β-mercaptoethanol for NV3CP; 20 mM Na phosphate pH 7.5 for NNMT; […]. The reaction was stopped by quenching with formic acid, 0.4% final concentration. Each protein was incubated with the electrophilic library in pools of five compounds per well. The pool’s composition maximized the difference in mass between fragments in the same well. Incubations were performed with each fragment at 200 μM, for 24 h at 4 °C, to allow the screening of proteins that are not stable for long time periods at higher temperatures. Following incubation, we used intact protein [compound left out] chromatography/mass spectrometry (LC/MS) to identify the fragments and quantify their labeling (Figure 3A). […] There was good agreement between the percent of labeling of NUDT7 by 100 random individual compounds and that obtained in pools of five (R^2=0.78; Figure S6 and Data set 2 in the Supporting Information).

[2] = target: T2, NUDT7 (Homo sapiens, UniProt P0C024); parameters: Intact protein LC/MS covalent labelling, fragments in pools of five, 200 uM each, 4 °C; conditions: 24 h, 4 °C, pool of five; 200 µM; covalent
T2 construct: residues 14-235, E. coli, pNIC28-Bsa4, N-terminal His6 tag removed by TEV, construct 26672 Da
Procedure: as §1

[3] = target: T3, BSA (Bos taurus, UniProt P02769); parameters: Intact protein LC/MS covalent labelling, fragments in pools of five, 200 uM each, 4 °C; conditions: 24 h, 4 °C, pool of five; 200 µM; covalent
T3 construct: gene ALB
Procedure: as §1

[4] = target: T4, PCAF (Homo sapiens, UniProt Q92831); parameters: Intact protein LC/MS covalent labelling, fragments in pools of five, 200 uM each, 4 °C; conditions: 24 h, 4 °C, pool of five; 200 µM; covalent
T4 construct: gene KAT2B
Procedure: as §1

[5] = in vitro; parameters: species or system HB2, HEK293; conditions: human, ccd841 cells
[6] = in vitro; parameters: species or system HB2, CCD841; conditions: human, hek293 cells
[7] = in vitro; parameters: species or system CCD841, HEK293; conditions: human, hb2 cells, read-out: HB-2 Cells Viability (%)

T3 sequence (P02769 whole entry, the tested form may be a part): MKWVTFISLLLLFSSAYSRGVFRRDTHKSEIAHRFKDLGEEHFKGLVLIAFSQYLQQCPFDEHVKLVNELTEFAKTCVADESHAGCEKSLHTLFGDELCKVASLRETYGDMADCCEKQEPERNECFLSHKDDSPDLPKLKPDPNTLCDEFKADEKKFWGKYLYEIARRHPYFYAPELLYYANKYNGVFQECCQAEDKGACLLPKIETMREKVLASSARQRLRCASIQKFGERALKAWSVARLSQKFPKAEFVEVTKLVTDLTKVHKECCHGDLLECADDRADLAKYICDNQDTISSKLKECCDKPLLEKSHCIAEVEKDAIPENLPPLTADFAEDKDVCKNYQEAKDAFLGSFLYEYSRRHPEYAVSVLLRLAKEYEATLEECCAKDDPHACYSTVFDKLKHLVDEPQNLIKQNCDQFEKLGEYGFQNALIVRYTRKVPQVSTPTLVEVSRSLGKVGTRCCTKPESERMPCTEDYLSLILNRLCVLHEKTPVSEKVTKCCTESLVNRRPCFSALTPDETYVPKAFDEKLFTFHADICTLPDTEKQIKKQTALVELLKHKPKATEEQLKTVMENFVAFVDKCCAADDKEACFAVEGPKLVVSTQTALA
T4 sequence (Q92831 whole entry, the tested form may be a part): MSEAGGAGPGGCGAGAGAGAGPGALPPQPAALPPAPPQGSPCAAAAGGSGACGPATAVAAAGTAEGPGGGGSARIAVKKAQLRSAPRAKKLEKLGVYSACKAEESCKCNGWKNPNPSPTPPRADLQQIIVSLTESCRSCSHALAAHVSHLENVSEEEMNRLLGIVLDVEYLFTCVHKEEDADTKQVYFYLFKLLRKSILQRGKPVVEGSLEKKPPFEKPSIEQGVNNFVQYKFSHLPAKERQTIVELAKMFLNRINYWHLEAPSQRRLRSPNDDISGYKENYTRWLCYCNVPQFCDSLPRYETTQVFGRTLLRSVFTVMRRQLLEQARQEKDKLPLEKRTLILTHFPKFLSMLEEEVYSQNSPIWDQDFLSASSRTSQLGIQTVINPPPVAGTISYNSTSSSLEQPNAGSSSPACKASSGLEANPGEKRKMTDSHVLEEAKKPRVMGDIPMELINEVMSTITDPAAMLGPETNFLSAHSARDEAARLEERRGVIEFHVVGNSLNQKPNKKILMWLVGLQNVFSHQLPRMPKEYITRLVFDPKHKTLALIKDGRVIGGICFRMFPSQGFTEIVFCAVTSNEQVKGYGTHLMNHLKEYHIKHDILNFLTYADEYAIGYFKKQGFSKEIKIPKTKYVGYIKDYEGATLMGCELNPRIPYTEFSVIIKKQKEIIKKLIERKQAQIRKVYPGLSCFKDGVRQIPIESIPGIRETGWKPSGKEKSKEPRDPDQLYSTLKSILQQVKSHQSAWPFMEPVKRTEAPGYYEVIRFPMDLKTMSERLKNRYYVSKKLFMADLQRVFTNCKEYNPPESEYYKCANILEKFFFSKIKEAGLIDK
T2 sequence (P0C024 14-235): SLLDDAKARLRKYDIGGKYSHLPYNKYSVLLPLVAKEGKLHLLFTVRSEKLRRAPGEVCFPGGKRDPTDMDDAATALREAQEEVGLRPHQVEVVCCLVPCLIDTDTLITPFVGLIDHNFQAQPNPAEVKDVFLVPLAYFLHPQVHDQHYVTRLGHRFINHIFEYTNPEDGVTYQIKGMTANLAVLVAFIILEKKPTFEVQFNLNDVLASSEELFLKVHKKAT

SMILES	OTUB2 [1]	NUDT7 [2]	BSA [3]	PCAF [4]	viability at 48 h, 10 µM [5] [%]	viability at 48 h, 10 µM [6] [%]	viability at 48 h, 10 µM [7] [%]
Cl.O=C(CCl)N1CCN(CC(=O)N2CCCC2)CC1 [PCM-0102346]	0	0	0	0	80.8	99	98.1
Cc1cc(C)c2nc(NC(=O)CCl)sc2c1 [PCM-0102246]	0.14	0.83	0	0	79.8	67.3	51.6
C=CC(=O)Nc1ccc(N2CCOCC2)cc1 [PCM-0102551]	0	0	0	0	113	82.5	99.9
COC(=O)C1(NC(=O)CCl)CCC(C)CC1 (stereo not shown) [PCM-0102827]	0	0	0	0	96.8	93.6	102
CN(C(=O)CCl)c1nccs1 [PCM-0102975]	0	0	0	0	118	97	99.8
COC(=O)c1ccc(Cl)c(NC(=O)CCl)c1 [PCM-0102764]	0.29	0.07	0	0	39.9	5.7	16.7
C=CC(=O)NCC1C2Cc3ccccc3C12 (stereo not shown) [PCM-0102769]	0.21	0	0	0	97.5	79.1	94.3
CN(C(=O)CCl)C1CCS(=O)(=O)C1 (stereo not shown) [PCM-0102178]	0	0	0	0	72.1	31.5	56.9
CC1CCc2ccccc2N1C(=O)CCl (stereo not shown) [PCM-0102822]	0	0	0	0	39.6	54.7	92.2
O=C(CCl)NC1CCSC1=O (stereo not shown) [PCM-0103062]	0	0	0	0	88.2	90.7	97.6
N#Cc1ccccc1S(=O)(=O)N1CCN(C(=O)CCl)CC1 [PCM-0102395]	0	0.28	0	0	62.6	9.7	11.2
C=CCNC(=O)NC(=O)CCl [PCM-0102709]	0	0	0	0	77.7	75.3	90
C=CC(=O)NC1CNC(=O)C1 (stereo not shown) [PCM-0102882]	0	0	0	0	99.1	97.3	108
O=C(CCl)N1c2ccccc2OCC1c1ccccc1 (stereo not shown) [PCM-0102266]	0	0.11	0	0	57.5	52.1	56.8
NC(=O)C1CN(C(=O)CCl)c2ccccc2O1 (stereo not shown) [PCM-0102245]	0.15	0.12	0	0	60.8	31.8	58.4
C=CC(=O)Nc1ccc2c(c1)OCO2 [PCM-0102347]	0	0	0	0	106	79.7	109
CC(C)N(C(=O)CCl)C1CCCCC1 [PCM-0102941]	0	0.17	0.3	0	26	56.3	85.7
C=CC(=O)NCC1CCOCO1 (stereo not shown) [PCM-0102648]	0	0	0.2	0	104	88.8	102
CC1CCN(C(=O)CCl)CC1 [PCM-0102945]	0	0	0	0	108	88.3	103
N#Cc1c2c(n(-c3ccccc3)c1NC(=O)CCl)CCCC2 [PCM-0102107]	0.08	0.46	0	0	53.9	7.6	18
O=C1CN(C(=O)CCl)CCN1 [PCM-0103008]	0	0	0	0	92.8	86.5	95.3
C=CC(=O)Nc1cc(N)ccc1F [PCM-0102533]	0	0	0	0	113	75.6	108
